# According to ChEMBL document CHEMBL4145553, “Design, synthesis, and biological evaluation of novel amide and hydrazide based thioether analogs targeting Histone deacteylase (HDAC) enzymes” (Eur J Med Chem, 2018):
# Columns and labels:
# Type in all cases: functional
# SW-620 = test: Growth inhibition of human SW620 cells assessed as cell growth at 10^-7 M incubated for 48 hrs by sulforhodamine B assay relative to control; conditions: SW-620, 48 h, read-out: Activity
# IGROV-1 [1] = test: Growth inhibition of human IGROV1 cells assessed as cell growth at 10^-8 M incubated for 48 hrs by sulforhodamine B assay relative to control; conditions: IGROV-1, 48 h, read-out: Activity
# OVCAR-4 = test: Growth inhibition of human OVCAR4 cells assessed as cell growth at 10^-6 M incubated for 48 hrs by sulforhodamine B assay relative to control; conditions: OVCAR-4, 48 h, read-out: Activity
# SNB-19 = test: Growth inhibition of human SNB19 cells incubated for 48 hrs by sulforhodamine B assay; conditions: SNB-19, 48 h
# 786-0 = test: Growth inhibition of human 786-0 cells incubated for 48 hrs by sulforhodamine B assay; conditions: 786-0, 48 h
# RPMI-8226 = test: Growth inhibition of human RPMI8226 cells assessed as cell growth at 10^-5 M incubated for 48 hrs by sulforhodamine B assay relative to control; conditions: RPMI-8226, 48 h, read-out: Activity
# M14 = test: Growth inhibition of human M14 cells assessed as cell growth at 10^-8 M incubated for 48 hrs by sulforhodamine B assay relative to control; conditions: M14, 48 h, read-out: Activity
# UACC-62 [2] = test: Growth inhibition of human UACC62 cells incubated for 48 hrs by sulforhodamine B assay; conditions: UACC-62, 48 h
# UACC-62 [3] = test: Growth inhibition of human UACC62 cells assessed as cell growth at 10^-7 M incubated for 48 hrs by sulforhodamine B assay relative to control; conditions: UACC-62, 48 h, read-out: Activity
# NCI-H23 = test: Growth inhibition of human NCI-H23 cells assessed as cell growth at 10^-8 M incubated for 48 hrs by sulforhodamine B assay relative to control; conditions: NCI-H23, 48 h, read-out: Activity
# OVCAR-3 [4] = test: Growth inhibition of human OVCAR3 cells assessed as cell growth at 10^-5 M incubated for 48 hrs by sulforhodamine B assay relative to control; conditions: OVCAR-3, 48 h, read-out: Activity
# HL-60(TB) [5] = test: Growth inhibition of human HL-60(TB) cells incubated for 48 hrs by sulforhodamine B assay; conditions: HL-60, 48 h
# HL-60 = test: Cell cycle arrest in human HL60 cells assessed as accumulation at G2-phase by propidium iodide staining based flow cytometry (reference value: 6.58%)
# OVCAR-3 [6] = test: Growth inhibition of human OVCAR3 cells incubated for 48 hrs by sulforhodamine B assay; conditions: OVCAR-3, 48 h
# ACHN = test: Growth inhibition of human ACHN cells assessed as cell growth at 10^-6 M incubated for 48 hrs by sulforhodamine B assay relative to control; conditions: read-out: Activity
# SF-268 = test: Growth inhibition of human SF268 cells assessed as cell growth at 10^-4 M incubated for 48 hrs by sulforhodamine B assay relative to control; conditions: SF-268, 48 h, read-out: Activity
# BT-549 = test: Growth inhibition of human BT549 cells assessed as cell growth at 10^-4 M incubated for 48 hrs by sulforhodamine B assay relative to control; conditions: BT-549, 48 h, read-out: Activity
# A498 = test: Growth inhibition of human A498 cells assessed as cell growth at 10^-5 M incubated for 48 hrs by sulforhodamine B assay relative to control; conditions: A498, 48 h, read-out: Activity
# SNB-75 = test: Growth inhibition of human SNB75 cells assessed as cell growth at 10^-8 M incubated for 48 hrs by sulforhodamine B assay relative to control; conditions: SNB-75, 48 h, read-out: Activity
# MDA-MB-435 = test: Induction of apoptosis in human MDA-MB-435 cells assessed as necrotic cells by propidium iodide/Annexin V staining based flow cytometry (reference value: 0.24%)
# HL-60(TB) [7] = test: Growth inhibition of human HL-60(TB) cells assessed as cell growth at 10^-7 M incubated for 48 hrs by sulforhodamine B assay relative to control; conditions: HL-60, 48 h, read-out: Activity
# MDA-MB-231 = test: Growth inhibition of human MDA-MB-231 cells incubated for 48 hrs by sulforhodamine B assay; conditions: MDA-MB-231, 48 h
# K562 [8] = test: Growth inhibition of human K562 cells incubated for 48 hrs by sulforhodamine B assay; conditions: K562, 48 h
# K562 [9] = test: Growth inhibition of human K562 cells assessed as cell growth at 10^-8 M incubated for 48 hrs by sulforhodamine B assay relative to control; conditions: K562, 48 h, read-out: Activity
# UO-31 = test: Growth inhibition of human UO31 cells assessed as cell growth at 10^-4 M incubated for 48 hrs by sulforhodamine B assay relative to control; conditions: UO-31, 48 h, read-out: Activity
# IGROV-1 [10] = test: Growth inhibition of human IGROV1 cells incubated for 48 hrs by sulforhodamine B assay; conditions: IGROV-1, 48 h
# MOLT-4 = test: Growth inhibition of human MOLT4 cells assessed as cell growth at 10^-8 M incubated for 48 hrs by sulforhodamine B assay relative to control; conditions: MOLT-4, 48 h, read-out: Activity
# T47D = test: Growth inhibition of human T47D cells assessed as cell growth at 10^-5 M incubated for 48 hrs by sulforhodamine B assay relative to control; conditions: read-out: Activity
# [11] = read-out: LC50 (the source's name)
# [12] = read-out: pLC50 (the source's name) (converted)
compound,measurement,setting,value
CCS/C(Nc1ccccc1)=C(\C#N)C(=O)N/N=C\c1ccc(Cl)cc1Cl,growth at 0.1 µM,SW-620,92%
same,growth at 0.01 µM,IGROV-1 [1],106%
same,growth at 1 µM,OVCAR-4,86%
same,GI50,SNB-19; read-out: GI50,4.17 µM
same,CC50,SNB-19; [11],> 100 µM
same,TGI,SNB-19; read-out: TGI,> 100 µM
same,GI50,SNB-19; read-out: pGI50 (converted),4.17 µM
same,CC50,SNB-19; [12],> 100 µM
same,TGI,SNB-19; read-out: pTGI,> 100 µM
same,GI50,786-0; read-out: GI50,3.5 µM
same,CC50,786-0; [11],> 100 µM
same,TGI,786-0; read-out: TGI,> 100 µM
same,GI50,786-0; read-out: pGI50 (converted),3.47 µM
same,CC50,786-0; [12],> 100 µM
same,TGI,786-0; read-out: pTGI,> 100 µM
same,growth at 10 µM,RPMI-8226,18%
same,growth at 0.01 µM,M14,101%
same,GI50,UACC-62 [2]; read-out: GI50,2740 nM
same,CC50,UACC-62 [2]; [11],> 100 µM
same,TGI,UACC-62 [2]; read-out: TGI,> 100 µM
same,GI50,UACC-62 [2]; read-out: pGI50 (converted),2750 nM
same,CC50,UACC-62 [2]; [12],> 100 µM
same,TGI,UACC-62 [2]; read-out: pTGI,> 100 µM
same,growth at 0.1 µM,UACC-62 [3],91%
same,growth at 0.01 µM,NCI-H23,105%
same,growth at 10 µM,OVCAR-3 [4],1%
same,GI50,HL-60(TB) [5]; read-out: GI50,3.2 µM
same,CC50,HL-60(TB) [5]; [11],> 100 µM
same,TGI,HL-60(TB) [5]; read-out: TGI,> 100 µM
same,GI50,HL-60(TB) [5]; read-out: pGI50 (converted),3.24 µM
same,CC50,HL-60(TB) [5]; [12],> 100 µM
same,TGI,HL-60(TB) [5]; read-out: pTGI,> 100 µM
same,Activity,HL-60,22.18%
same,GI50,OVCAR-3 [6]; read-out: GI50,2800 nM
same,CC50,OVCAR-3 [6]; [11],> 100 µM
same,TGI,OVCAR-3 [6]; read-out: TGI,10.8 µM
same,GI50,OVCAR-3 [6]; read-out: pGI50 (converted),2820 nM
same,CC50,OVCAR-3 [6]; [12],> 100 µM
same,TGI,OVCAR-3 [6]; read-out: pTGI (converted),10.7 µM
same,growth at 1 µM,ACHN,92%
same,growth at 100 µM,SF-268,27%
same,growth at 100 µM,BT-549,7%
same,growth at 10 µM,A498,3%
same,growth at 0.01 µM,SNB-75,88%
same,Activity,MDA-MB-435,0.89%
same,growth at 0.1 µM,HL-60(TB) [7],91%
same,GI50,MDA-MB-231; read-out: GI50,4.75 µM
same,CC50,MDA-MB-231; [11],> 100 µM
same,TGI,MDA-MB-231; read-out: TGI,> 100 µM
same,GI50,MDA-MB-231; read-out: pGI50 (converted),4.79 µM
same,CC50,MDA-MB-231; [12],> 100 µM
same,TGI,MDA-MB-231; read-out: pTGI (converted),> 100 µM
same,GI50,K562 [8]; read-out: GI50,855 nM
same,CC50,K562 [8]; [11],> 100 µM
same,TGI,K562 [8]; read-out: TGI,> 100 µM
same,GI50,K562 [8]; read-out: pGI50 (converted),851 nM
same,CC50,K562 [8]; [12],> 100 µM
same,TGI,K562 [8]; read-out: pTGI,> 100 µM
same,growth at 0.01 µM,K562 [9],106%
same,growth at 100 µM,UO-31,41%
same,GI50,IGROV-1 [10]; read-out: GI50,6.46 µM
same,CC50,IGROV-1 [10]; [11],> 100 µM
same,TGI,IGROV-1 [10]; read-out: TGI,> 100 µM
same,GI50,IGROV-1 [10]; read-out: pGI50 (converted),6.46 µM
same,CC50,IGROV-1 [10]; [12],> 100 µM
same,TGI,IGROV-1 [10]; read-out: pTGI,> 100 µM
same,growth at 0.01 µM,MOLT-4,95%
same,growth at 10 µM,T47D,24%
